Consider 21 compounds from patent US10981911B2, “Imidazopyrrolopyridine as inhibitors of the JAK family of kinases” (Janssen Pharmaceutica NV, priority 2016, dated 2021).

Common to all, as to format: biochemical
For one test, the target named is Tyk2-JH1JH2 (Homo sapiens (Human), UniProt P29597, C1142A/C936A). The test can be described thus: Enzymatic inhibition assay (RapidFire HTMS), Tyk2. The note with it: 50 μM ATP, 200 μM substrate. In a few lines: (§1)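 Quenched with 0.5% TFA plus internal-standard peptide; phosphorylated product quantified by RapidFire C4 SPE–ESI-MS, 11-point 1:3 or 1:4 dilutions in duplicate.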
Chain of Tyk2-JH1JH2 (P29597 580-1182 C936A/C1142A): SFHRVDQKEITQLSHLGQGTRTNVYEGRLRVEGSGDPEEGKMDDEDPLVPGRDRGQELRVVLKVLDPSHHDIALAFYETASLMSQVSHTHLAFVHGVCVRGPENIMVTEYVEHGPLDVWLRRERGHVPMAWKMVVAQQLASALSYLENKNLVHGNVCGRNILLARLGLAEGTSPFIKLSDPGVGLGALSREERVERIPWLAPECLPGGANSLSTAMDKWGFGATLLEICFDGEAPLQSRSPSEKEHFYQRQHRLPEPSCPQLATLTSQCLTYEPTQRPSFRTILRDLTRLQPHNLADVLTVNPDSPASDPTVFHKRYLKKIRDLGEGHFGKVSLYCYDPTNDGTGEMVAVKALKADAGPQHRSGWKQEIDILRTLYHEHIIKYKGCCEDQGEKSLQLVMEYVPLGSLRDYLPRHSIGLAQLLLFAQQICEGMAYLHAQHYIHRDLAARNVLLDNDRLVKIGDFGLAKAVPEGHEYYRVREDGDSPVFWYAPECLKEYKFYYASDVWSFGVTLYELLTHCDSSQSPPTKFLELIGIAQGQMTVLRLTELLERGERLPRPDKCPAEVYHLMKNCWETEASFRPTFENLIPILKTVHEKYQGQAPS

In the next test the target is JAK3-JH1JH2 (Homo sapiens (Human), UniProt P52333). The test can be described thus: Enzymatic inhibition assay (RapidFire HTMS), JAK3. The note with it: 150 μM ATP, 40 μM substrate. The gist of the method:
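JAK3 JH1JH2 reaction incubated 45 min at 25 °C, then quenched with 0.5% TFA containing 0.15 μM internal standard peptide. Phosphopeptide product measured by RapidFire C4 SPE–ESI MS (positive mode); inhibition from product decrease versus uninhibited enzyme, 11-point 1:3 or 1:4 dilutions in duplicate.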

Another test has as its target JAK1-JH1JH2 (Homo sapiens (Human), UniProt P23458). In words: Enzymatic inhibition assay (RapidFire HTMS), JAK1. The note with it: 12.5 μM ATP, 200 μM substrate; read-out: JAK1-JH2JH1 IC50. In a few lines: as §1
For another test, the target named is JAK2-JH1JH2 (Homo sapiens (Human), UniProt O60674). In words: Enzymatic inhibition assay (RapidFire HTMS), JAK2. The note with it: 30 μM ATP, 40 μM substrate. In a few lines: as §1
Chain of JAK2-JH1JH2 (O60674 532-1132): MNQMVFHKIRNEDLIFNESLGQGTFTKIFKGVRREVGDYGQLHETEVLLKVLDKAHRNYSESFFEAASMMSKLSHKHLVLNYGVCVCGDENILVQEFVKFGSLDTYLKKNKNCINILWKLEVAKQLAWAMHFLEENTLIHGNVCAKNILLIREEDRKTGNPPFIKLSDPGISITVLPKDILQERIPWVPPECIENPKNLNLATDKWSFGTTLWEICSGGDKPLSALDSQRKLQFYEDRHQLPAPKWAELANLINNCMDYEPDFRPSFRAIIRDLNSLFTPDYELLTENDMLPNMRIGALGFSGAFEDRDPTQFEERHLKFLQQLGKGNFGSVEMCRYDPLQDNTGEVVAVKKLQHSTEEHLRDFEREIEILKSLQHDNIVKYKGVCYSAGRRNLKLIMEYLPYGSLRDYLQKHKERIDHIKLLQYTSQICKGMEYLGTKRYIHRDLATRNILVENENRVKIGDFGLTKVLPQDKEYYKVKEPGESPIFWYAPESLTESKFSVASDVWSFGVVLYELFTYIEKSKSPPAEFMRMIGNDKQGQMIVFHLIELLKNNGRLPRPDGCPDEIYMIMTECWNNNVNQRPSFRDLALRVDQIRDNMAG

Chain of JAK1-JH1JH2 (P23458 574-1154): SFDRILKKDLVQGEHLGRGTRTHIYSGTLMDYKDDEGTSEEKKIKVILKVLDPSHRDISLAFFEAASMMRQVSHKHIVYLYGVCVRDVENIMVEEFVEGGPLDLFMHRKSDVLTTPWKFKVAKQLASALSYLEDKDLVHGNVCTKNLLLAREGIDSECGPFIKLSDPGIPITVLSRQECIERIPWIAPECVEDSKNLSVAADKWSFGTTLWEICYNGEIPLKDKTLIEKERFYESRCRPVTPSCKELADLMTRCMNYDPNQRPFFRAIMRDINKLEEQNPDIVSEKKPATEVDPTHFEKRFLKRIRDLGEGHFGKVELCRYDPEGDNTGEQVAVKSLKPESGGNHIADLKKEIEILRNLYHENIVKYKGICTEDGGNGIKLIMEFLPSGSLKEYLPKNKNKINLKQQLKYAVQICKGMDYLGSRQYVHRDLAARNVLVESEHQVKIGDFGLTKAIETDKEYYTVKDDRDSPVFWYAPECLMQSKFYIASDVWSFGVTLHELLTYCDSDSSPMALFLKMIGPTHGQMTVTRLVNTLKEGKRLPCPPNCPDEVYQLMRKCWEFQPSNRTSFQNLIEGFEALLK
Chain of JAK3-JH1JH2 (P52333 512-1124): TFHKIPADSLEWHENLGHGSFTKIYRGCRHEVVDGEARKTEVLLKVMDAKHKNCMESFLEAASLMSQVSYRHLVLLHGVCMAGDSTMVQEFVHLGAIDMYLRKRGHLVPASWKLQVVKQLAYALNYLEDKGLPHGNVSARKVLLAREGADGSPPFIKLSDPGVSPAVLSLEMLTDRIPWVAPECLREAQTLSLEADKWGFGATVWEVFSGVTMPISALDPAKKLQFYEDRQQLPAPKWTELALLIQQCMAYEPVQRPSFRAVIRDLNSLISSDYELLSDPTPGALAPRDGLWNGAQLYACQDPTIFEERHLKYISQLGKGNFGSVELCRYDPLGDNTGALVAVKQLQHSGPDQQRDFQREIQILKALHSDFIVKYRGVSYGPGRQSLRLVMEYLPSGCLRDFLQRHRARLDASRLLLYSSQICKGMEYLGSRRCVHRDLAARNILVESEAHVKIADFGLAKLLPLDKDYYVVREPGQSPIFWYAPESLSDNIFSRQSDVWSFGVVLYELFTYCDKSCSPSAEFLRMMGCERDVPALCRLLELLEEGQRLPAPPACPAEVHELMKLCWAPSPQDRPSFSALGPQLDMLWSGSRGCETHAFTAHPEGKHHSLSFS

Turning to `N#CC[C@H]1CC[C@H](n2c(CC(=O)N3CCC(F)(F)CC3)nc3cnc4[nH]ccc4c32)CC1` [Ex. 107, 2-((1r,4r)-4-(2-(2-(4,4-Difluoropiperidin-1-yl)-2-oxoethyl)imidazo[4,5-d]pyrrolo[2,3-b]pyridin-1(6H)-yl)cyclohexyl)acetonitrile], the IC50 (as a rule, the midpoint of a concentration-inhibition curve) is 5.1 nM on Tyk2-JH1JH2, 142 nM against JAK3-JH1JH2, 0.6 nM on JAK1-JH1JH2 and 18.2 nM on JAK2-JH1JH2.

`N#CC[C@H]1CC[C@H](n2c(COC(=O)Nc3ccccc3)nc3cnc4[nH]ccc4c32)CC1` [Ex. 109, (1-((1r,4r)-4-(Cyanomethyl)cyclohexyl)-1,6-dihydroimidazo[4,5-d]pyrrolo[2,3-b]pyridin-2-yl)methyl Phenylcarbamate]: the IC50 was determined as 11.3 nM against Tyk2-JH1JH2, 135 nM at JAK3-JH1JH2, 0.6 nM on JAK1-JH1JH2 and 7.5 nM against JAK2-JH1JH2.

In the case of `N#CC[C@H]1CC[C@H](n2c(CN/C(=N\O)C3CC3)nc3cnc4[nH]ccc4c32)CC1` [Ex. 110, (EZ)—N-((1-((1r,4r)-4-(Cyanomethyl)cyclohexyl)-1,6-dihydroimidazo[4,5-d]pyrrolo[2,3-b]pyridin-2-yl)methyl)-N′-hydroxycyclopropanecarboximidamide], the IC50 was found to be 17.4 nM against Tyk2-JH1JH2, 416 nM on JAK3-JH1JH2, 0.6 nM on JAK1-JH1JH2 and 29 nM against JAK2-JH1JH2.

Take `N#CC[C@H]1CC[C@H](n2c(CC(=O)Nc3cccnc3)nc3cnc4[nH]ccc4c32)CC1` [Ex. 111, 2-(1-((1r,4r)-4-(Cyanomethyl)cyclohexyl)-1,6-dihydroimidazo[4,5-d]pyrrolo[2,3-b]pyridin-2-yl)-N-(pyridin-3-yl)acetamide]: the IC50 against Tyk2-JH1JH2 came to 6.3 nM; on JAK3-JH1JH2 it was 68 nM; at JAK1-JH1JH2, 0.6 nM; on JAK2-JH1JH2 it was 4 nM.

For `N#CC[C@H]1CC[C@H](n2c(CO/N=C(\N)CC3CC3)nc3cnc4[nH]ccc4c32)CC1` [Ex. 112, (Z)—N-((1-((1r,4r)-4-(Cyanomethyl)cyclohexyl)-1,6-dihydroimidazo[4,5-d]pyrrolo[2,3-b]pyridin-2-yl)methoxy)-2-cyclopropylacetimidamide], the IC50 at Tyk2-JH1JH2 was determined as 40.8 nM; against JAK3-JH1JH2 it was 161 nM; at JAK1-JH1JH2 it was 0.6 nM; at JAK2-JH1JH2, 3.6 nM.

As to `COCc1nc2cnc3[nH]ccc3c2n1[C@H]1CC[C@H](CC#N)CC1` [Ex. 113, 2-((1r,4r)-4-(2-(Methoxymethyl)imidazo[4,5-d]pyrrolo[2,3-b]pyridin-1(6H)-yl)cyclohexyl)acetonitrile], the IC50 against Tyk2-JH1JH2 turned out to be 11.2 nM; at JAK3-JH1JH2, 322 nM; at JAK1-JH1JH2, 0.6 nM; against JAK2-JH1JH2, 10.2 nM.

In the case of `N#CC[C@H]1CC[C@H](n2c(C(=O)NCCO)nc3cnc4[nH]ccc4c32)CC1` [Ex. 114, 1-((1r,4r)-4-(Cyanomethyl)cyclohexyl)-N-(2-hydroxyethyl)-1,6-dihydroimidazo[4,5-d]pyrrolo[2,3-b]pyridine-2-carboxamide], the IC50 came out at 12.7 nM on Tyk2-JH1JH2, 102 nM against JAK3-JH1JH2, 0.6 nM at JAK1-JH1JH2 and 4.8 nM at JAK2-JH1JH2.

As to `N#CC[C@H]1CC[C@H](n2c(-c3ccc(C#N)nc3)nc3cnc4[nH]ccc4c32)CC1` [Ex. 115, 5-(1-((1r,4r)-4-(Cyanomethyl)cyclohexyl)-1,6-dihydroimidazo[4,5-d]pyrrolo[2,3-b]pyridin-2-yl)picolinonitrile], the IC50 came out at 86.2 nM against Tyk2-JH1JH2, 754 nM at JAK3-JH1JH2, 0.6 nM on JAK1-JH1JH2 and 73.2 nM at JAK2-JH1JH2.

As to `CC(C)(O)CC(=O)NCc1nc2cnc3[nH]ccc3c2n1[C@H]1CC[C@H](CC#N)CC1` [Ex. 116, N-((1-((1r,4r)-4-(Cyanomethyl)cyclohexyl)-1,6-dihydroimidazo[4,5-d]pyrrolo[2,3-b]pyridin-2-yl)methyl)-3-hydroxy-3-methylbutanamide], the IC50 is 50.9 nM against Tyk2-JH1JH2, 1190 nM at JAK3-JH1JH2, 0.6 nM on JAK1-JH1JH2 and 86.7 nM against JAK2-JH1JH2.

Regarding `N#CC[C@H]1CC[C@H](n2c(CC(=O)Nc3ccncc3)nc3cnc4[nH]ccc4c32)CC1` [Ex. 118, 2-(1-((1r,4r)-4-(Cyanomethyl)cyclohexyl)-1,6-dihydroimidazo[4,5-d]pyrrolo[2,3-b]pyridin-2-yl)-N-(pyridin-4-yl)acetamide], the IC50 at Tyk2-JH1JH2 was 5.4 nM; against JAK3-JH1JH2, 50.5 nM; at JAK1-JH1JH2 it was 0.7 nM; at JAK2-JH1JH2, 3.5 nM.

With `N#CC[C@H]1CC[C@H](n2c(-c3cncs3)nc3cnc4[nH]ccc4c32)CC1` [Ex. 119, 2-((1r,4r)-4-(2-(Thiazol-5-yl)imidazo[4,5-d]pyrrolo[2,3-b]pyridin-1(6H)-yl)cyclohexyl)acetonitrile], the IC50 against Tyk2-JH1JH2 was found to be 15.7 nM; against JAK3-JH1JH2, 117 nM; at JAK1-JH1JH2 it was 0.7 nM; on JAK2-JH1JH2 it was 8.8 nM.

Turning to `COCCNC(=O)Cc1nc2cnc3[nH]ccc3c2n1[C@H]1CC[C@H](CC#N)CC1` [Ex. 120, 2-(1-((1r,4r)-4-(Cyanomethyl)cyclohexyl)-1,6-dihydroimidazo[4,5-d]pyrrolo[2,3-b]pyridin-2-yl)-N-(2-methoxyethyl)acetamide], the IC50 against Tyk2-JH1JH2 came out at 19.1 nM; at JAK3-JH1JH2, 228 nM; on JAK1-JH1JH2, 0.7 nM; against JAK2-JH1JH2, 16 nM.

In the case of `N#CC[C@H]1CC[C@H](n2c(-c3ccc(C(=O)c4ccc(CO)cc4)cc3)nc3cnc4[nH]ccc4c32)CC1` [Ex. 121, 2-((1r,4r)-4-(2-(4-(4-(Hydroxymethyl)benzoyl)phenyl)imidazo[4,5-d]pyrrolo[2,3-b]pyridin-1(6H)-yl)cyclohexyl)acetonitrile], the IC50 against Tyk2-JH1JH2 was 44.3 nM; against JAK3-JH1JH2, 431 nM; on JAK1-JH1JH2 it was 0.7 nM; against JAK2-JH1JH2, 11.4 nM.

Regarding `N#CC[C@H]1CC[C@H](n2c(C(=O)NC3COC3)nc3cnc4[nH]ccc4c32)CC1` [Ex. 122, 1-((1r,4r)-4-(Cyanomethyl)cyclohexyl)-N-(oxetan-3-yl)-1,6-dihydroimidazo[4,5-d]pyrrolo[2,3-b]pyridine-2-carboxamide], the IC50 against Tyk2-JH1JH2 turned out to be 21.6 nM; against JAK3-JH1JH2, 437 nM; on JAK1-JH1JH2 it was 0.7 nM; against JAK2-JH1JH2, 20.8 nM.

In the case of `N#CC[C@H]1CC[C@H](n2c(CO/N=C(\N)c3ccccc3)nc3cnc4[nH]ccc4c32)CC1` [Ex. 124, (Z*)—N-((1-((1r,4r)-4-(Cyanomethyl)cyclohexyl)-1,6-dihydroimidazo[4,5-d]pyrrolo[2,3-b]pyridin-2-yl)methoxy)benzimidamide], the IC50 is 18.1 nM on Tyk2-JH1JH2, 141 nM at JAK3-JH1JH2, 0.7 nM at JAK1-JH1JH2 and 4.4 nM against JAK2-JH1JH2.

Take `COCC/C(=N/O)NCc1nc2cnc3[nH]ccc3c2n1[C@H]1CC[C@H](CC#N)CC1` [Ex. 125]: the IC50 against Tyk2-JH1JH2 came to 14.9 nM; at JAK3-JH1JH2, 622 nM; at JAK1-JH1JH2 it was 0.7 nM; against JAK2-JH1JH2, 27.1 nM.

Turning to `C#Cc1ccc(C(=O)c2ccc(COCc3nc4cnc5[nH]ccc5c4n3[C@H]3CC[C@H](CC#N)CC3)cc2)cc1` [Ex. 126, 2-((1r,4r)-4-(2-(((4-(4-Ethynylbenzoyl)benzyl)oxy)methyl)imidazo[4,5-d]pyrrolo[2,3-b]pyridin-1(6H)-yl)cyclohexyl)acetonitrile], the IC50 against Tyk2-JH1JH2 was determined as 14.2 nM; against JAK3-JH1JH2 it was 317 nM; on JAK1-JH1JH2, 0.7 nM; at JAK2-JH1JH2, 19.4 nM.

`N#CC[C@H]1CC[C@H](n2c(CC(=O)N3CC[C@@H](O)C3)nc3cnc4[nH]ccc4c32)CC1` [Ex. 127, 2-((1r,4r)-4-(2-(2-((R)-3-Hydroxypyrrolidin-1-yl)-2-oxoethyl)imidazo[4,5-d]pyrrolo[2,3-b]pyridin-1(6H)-yl)cyclohexyl)acetonitrile]: the IC50 stood at 12.8 nM on Tyk2-JH1JH2, 788 nM against JAK3-JH1JH2, 0.7 nM on JAK1-JH1JH2 and 69.4 nM against JAK2-JH1JH2.

`CCOC(=O)N1CC(c2nc3cnc4[nH]ccc4c3n2[C@H]2CC[C@H](CC#N)CC2)C1` [Ex. 128, Ethyl 3-(1-((1r,4r)-4-(Cyanomethyl)cyclohexyl)-1,6-dihydroimidazo[4,5-d]pyrrolo[2,3-b]pyridin-2-yl)azetidine-1-carboxylate]: the IC50 against Tyk2-JH1JH2 was 64.4 nM; against JAK3-JH1JH2, 1090 nM; on JAK1-JH1JH2, 0.7 nM; at JAK2-JH1JH2, 110 nM.

Consider `CC(C)c1noc(=O)n1Cc1nc2cnc3[nH]ccc3c2n1[C@H]1CC[C@H](CC#N)CC1` [Ex. 129, 2-((1r,4r)-4-(2-((3-Isopropyl-5-oxo-1,2,4-oxadiazol-4(5H)-yl)methyl)imidazo[4,5-d]pyrrolo[2,3-b]pyridin-1(6H)-yl)cyclohexyl)acetonitrile], for which the IC50 worked out at 10.7 nM on Tyk2-JH1JH2, 2690 nM at JAK3-JH1JH2, 0.8 nM at JAK1-JH1JH2 and 150 nM against JAK2-JH1JH2.

In the case of `C#Cc1ccc(C(=O)c2ccc(OCc3nc4cnc5[nH]ccc5c4n3[C@H]3CC[C@H](CC#N)CC3)cc2)cc1` [Ex. 130, 2-((1r,4r)-4-(2-((4-(4-Ethynylbenzoyl)phenoxy)methyl)imidazo[4,5-d]pyrrolo[2,3-b]pyridin-1(6H)-yl)cyclohexyl)acetonitrile], the IC50 is 19.4 nM against Tyk2-JH1JH2, 130 nM at JAK3-JH1JH2, 0.8 nM on JAK1-JH1JH2 and 15.7 nM on JAK2-JH1JH2.
